Laboratory results from US20150057154A1, “HERBICIDAL COMPOSITIONS COMPRISING SULFENTRAZONE plus PROPYZAMIDE AND SULFENTRAZONE PLUS PROPYZAMIDE PLUS ETHALFLURALIN” (Dow AgroSciences LLC, priority 2013, published 2015).

Tests used:
Format in all cases: in vivo
[1] = test system: Avena fatua (wild oats, AVEFA); experiment: Field trial, percent visual weed control of wild oats
Protocol: (§1) These trials were conducted under field conditions in western Canada. The trials were designed as split-block, factorial designs with timing (spring vs. fall), Authority 480 (sulfentrazone) rate (0, 52 or 105 g ai/ha), Kerb™ SC (propyzamide) rate (0, 450 or 900 g ai/ha) as the main factors and Edge™ Granular (ethalfluralin) application (0 or 1100 g ai/ha) as the split-block factor. Edge™ was applied to test plots at a rate of 1100 g ai/ha using a granular applicator in the fall of 2011 (17 October to 9 November). Authority 480 and Kerb™ SC treatments were applied to test plots either in the fall prior to or after Edge™ application (17 October to 3 November), or in the spring of 2012 (24 April to 5 May). An untreated control was also included in each trial. Following herbicide treatment application in the spring of 2012, lentils were seeded or field peas were seeded into plots. Weed efficacy assessments were taken at 9-15 days after the spring application (DAA2) for an initial evaluation, 33 DAA2 for an early evaluation, 48-52 DAA2 for a mid evaluation, and 77-85 DAA2 for a late evaluation. The trial sites had naturally occurring populations of weeds. The weed spectrum included, but was not limited to, Avena fatua (wild oats, AVEFA), Hordeum jubatum (foxtail barley, HORJU), Kochia scoparia (kochia, KCHSC) and Sinapis arvensis L. (wild mustard, SINAR).
(§2) The treated plots and control plots were rated blind at various intervals after application. Ratings were based of Percent (%) Visual weed control, where 0 corresponds to no injury and 100 corresponds to complete kill.
(§3) Colby's equation was used to determine the herbicidal effects expected from the mixtures (Colby, S. R. Calculation of the synergistic and antagonistic response of herbicide combinations. Weeds 1967, 15, 20-22).
(§4) The following equation was used to calculate the expected activity of mixtures containing two active ingredients, A and B:
(§5) Expected=A+B−(A×B/100) • A=observed efficacy of active ingredient A at the same concentration as used in the mixture; • B=observed efficacy of active ingredient B at the same concentration as used in the mixture.
(§6) For mixtures containing three herbicidal active ingredients, the following equation can be used to calculate the expected activity:
(§7) [formula] • A=observed efficacy of a first active ingredient at the same concentration as used in the mixture; • B=observed efficacy of a second active ingredient B at the same concentration as used in the mixture; • C=observed efficacy of a third active ingredient C at the same concentration as used in the mixture.

[2] = test system: Sinapis arvensis L. (wild mustard, SINAR); experiment: Field trial, percent visual weed control of wild mustard
Protocol: as §1, §2, §3, §4, §5, §6, §7

[3] = test system: Kochia scoparia (kochia, KCHSC); experiment: Field trial, percent visual weed control of kochia
Protocol: as §1, §2, §3, §4, §5, §6, §7

[4] = test system: Hordeum jubatum (foxtail barley, HORJU); experiment: Field trial, percent visual weed control of foxtail barley
Protocol: as §1, §2, §3, §4, §5, §6, §7

[5] = Table 3 (Spring applications), ethalfluralin 1100 g ai/ha (Edge Granular applied in the fall)
[6] = Table 4, Fall application, ethalfluralin 1100 g ai/ha
[7] = Table 1, Fall application, sulfentrazone 52 g ai/ha
[8] = Table 1, Fall application, sulfentrazone 105 g ai/ha
[9] = Table 2, Spring application, sulfentrazone 52 g ai/ha
[10] = Table 3, Spring application, sulfentrazone 52 g ai/ha
[11] = Table 4, Fall application, sulfentrazone 52 g ai/ha
[12] = Table 1, Fall application, propyzamide 450 g ai/ha
[13] = Table 1, Fall application, propyzamide 900 g ai/ha
[14] = Table 2, Spring application, propyzamide 450 g ai/ha
[15] = Table 2, Spring application, propyzamide 900 g ai/ha
[16] = Table 3, Spring application, propyzamide 450 g ai/ha

C=C(C)CN(CC)c1c([N+](=O)[O-])cc(C(F)(F)F)cc1[N+](=O)[O-] [Ethalfluralin, N-ethyl-N-(2-methyl-2-propen-1-yl)-2,6-dinitro-4-(trifluoromethyl)benzenamine]
AVEFA Obs (Observed percent weed control) [1, 5]: 49% | SINAR Obs (Observed percent weed control) [2, 5]: 0% | SINAR Obs (Observed percent weed control) [2, 6]: 0% | KCHSC Obs (Observed percent weed control) [3, 5]: 55% | KCHSC Obs (Observed percent weed control) [3, 6]: 55%

Cc1nn(-c2cc(NS(C)(=O)=O)c(Cl)cc2Cl)c(=O)n1C(F)F [Sulfentrazone, N-[2,4-dichloro-5-[4-(difluoromethyl)-4,5-dihydro-3-methyl-5-oxo-1H-1,2,4-triazol-1-yl]phenyl]methanesulfonamide]
HORJU Obs (Observed percent weed control) [4, 7]: 15% | HORJU Obs (Observed percent weed control) [4, 8]: 28% | HORJU Obs (Observed percent weed control) [4, 9]: 15% | AVEFA Obs (Observed percent weed control) [1, 9]: 0% | AVEFA Obs (Observed percent weed control) ([1]; Table 2, Spring application, sulfentrazone 105 g ai/ha): 15% | AVEFA Obs (Observed percent weed control) ([1]; Table 3, Spring application, sulfentrazone 105 g ai/ha): 0% | SINAR Obs (Observed percent weed control) [2, 7]: 38% | SINAR Obs (Observed percent weed control) [2, 10]: 53% | SINAR Obs (Observed percent weed control) [2, 11]: 25% | KCHSC Obs (Observed percent weed control) [3, 7]: 30% | KCHSC Obs (Observed percent weed control) [3, 8]: 40% | KCHSC Obs (Observed percent weed control) [3, 9]: 20% | KCHSC Obs (Observed percent weed control) [3, 10]: 20% | KCHSC Obs (Observed percent weed control) [3, 11]: 30%

C#CC(C)(C)NC(=O)c1cc(Cl)cc(Cl)c1 [Propyzamide, 3,5-dichloro-N-(1,1-dimethyl-2-propyn-1-yl)benzamide]
HORJU Obs (Observed percent weed control) [4, 12]: 18% | HORJU Obs (Observed percent weed control) [4, 13]: 59% | HORJU Obs (Observed percent weed control) [4, 14]: 30% | HORJU Obs (Observed percent weed control) [4, 15]: 68% | AVEFA Obs (Observed percent weed control) [1, 14]: 30% | AVEFA Obs (Observed percent weed control) [1, 16]: 30% | SINAR Obs (Observed percent weed control) [2, 13]: 38% | SINAR Obs (Observed percent weed control) ([2]; Table 3, Spring application, propyzamide 900 g ai/ha): 10% | SINAR Obs (Observed percent weed control) ([2]; Table 4, Fall application, propyzamide 900 g ai/ha): 38% | KCHSC Obs (Observed percent weed control) [3, 12]: 0% | KCHSC Obs (Observed percent weed control) [3, 13]: 65% | KCHSC Obs (Observed percent weed control) [3, 15]: 0% | KCHSC Obs (Observed percent weed control) [3, 16]: 17% | KCHSC Obs (Observed percent weed control) ([3]; Table 4, Fall application, propyzamide 450 g ai/ha): 0%
